Assay results published in ChEMBL document CHEMBL3425434 (J Med Chem, 2015).
Active and inactive are the calls of the source. No cut-off for these calls is given here.

Columns and labels:
[1] = Inhibition of ROCK-catalysed MLC Thr18/Ser19 phosphorylation in rat A7r5 cells after 90 mins by ELISA; type: cell-based; details: A7R5, 1.5 h
[2] = Half life in human plasma by LC-MS/MS analysis; type: ADME, cell-free
[3] = target: T1, Rho-associated protein kinase 2 (Homo sapiens, UniProt O75116); assay: Inhibition of human N-terminal GST-tagged ROCK2 expressed in baculovirus-infected insect cells using long S6 kinase peptide as substrate by radiometric assay in presence of [32P]ATP
T1 sequence (O75116 whole entry): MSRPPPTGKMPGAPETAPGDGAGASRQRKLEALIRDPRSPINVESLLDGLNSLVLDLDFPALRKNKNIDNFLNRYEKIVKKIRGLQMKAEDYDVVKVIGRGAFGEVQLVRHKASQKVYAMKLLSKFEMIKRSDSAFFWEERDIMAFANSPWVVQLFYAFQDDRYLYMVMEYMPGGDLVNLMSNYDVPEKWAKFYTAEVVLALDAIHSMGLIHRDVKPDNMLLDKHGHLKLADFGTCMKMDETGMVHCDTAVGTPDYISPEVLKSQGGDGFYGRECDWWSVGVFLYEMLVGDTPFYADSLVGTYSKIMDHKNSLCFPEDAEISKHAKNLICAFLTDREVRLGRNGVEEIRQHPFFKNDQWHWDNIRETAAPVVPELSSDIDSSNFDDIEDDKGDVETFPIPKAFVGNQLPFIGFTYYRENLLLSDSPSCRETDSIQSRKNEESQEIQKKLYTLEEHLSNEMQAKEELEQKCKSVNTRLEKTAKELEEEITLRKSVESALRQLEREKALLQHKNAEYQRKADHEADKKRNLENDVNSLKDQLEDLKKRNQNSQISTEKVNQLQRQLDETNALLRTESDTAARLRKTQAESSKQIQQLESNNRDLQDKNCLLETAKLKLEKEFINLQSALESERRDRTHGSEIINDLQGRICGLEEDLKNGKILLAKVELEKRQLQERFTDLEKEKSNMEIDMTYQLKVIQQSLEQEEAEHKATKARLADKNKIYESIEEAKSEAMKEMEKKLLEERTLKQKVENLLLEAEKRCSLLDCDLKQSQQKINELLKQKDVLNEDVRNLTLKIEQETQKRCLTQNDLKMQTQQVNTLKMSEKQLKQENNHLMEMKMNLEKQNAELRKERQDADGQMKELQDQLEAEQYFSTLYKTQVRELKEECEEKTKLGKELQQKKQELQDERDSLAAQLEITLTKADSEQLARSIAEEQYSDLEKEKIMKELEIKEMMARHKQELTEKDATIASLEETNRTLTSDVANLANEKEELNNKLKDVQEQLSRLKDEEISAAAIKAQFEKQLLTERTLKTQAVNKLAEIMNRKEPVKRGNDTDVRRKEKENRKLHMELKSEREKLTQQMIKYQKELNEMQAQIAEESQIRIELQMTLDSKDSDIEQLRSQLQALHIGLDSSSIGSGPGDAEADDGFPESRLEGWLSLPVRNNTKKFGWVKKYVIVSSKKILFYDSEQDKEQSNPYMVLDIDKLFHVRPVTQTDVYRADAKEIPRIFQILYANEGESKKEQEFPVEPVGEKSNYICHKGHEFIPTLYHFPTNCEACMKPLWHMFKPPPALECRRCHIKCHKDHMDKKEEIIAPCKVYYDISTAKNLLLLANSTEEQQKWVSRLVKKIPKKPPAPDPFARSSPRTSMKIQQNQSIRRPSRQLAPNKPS

[4] = target: T1, Rho-associated protein kinase 2; assay: Inhibition of human N-terminal GST-tagged ROCK2 expressed in baculovirus-infected insect cells using long S6 kinase peptide as substrate by radiometric assay in presence of [32P]ATP and 200 uM ATP
[5] = Half life in human plasma by LC-MS/MS analysis in presence of 5 uM cholinesterase inhibitor tacrine; type: ADME, cell-free; details: with tacrine (cholinesterase inhibitor)
[6] = target: Rho-associated protein kinase 1 (Homo sapiens, UniProt Q13464); assay: Inhibition of human N-terminal GST-tagged ROCK1 expressed in insect cells using long S6 kinase peptide as substrate by radiometric assay in presence of [32P]ATP
Rho-associated protein kinase 1, sequence (Q13464 whole entry): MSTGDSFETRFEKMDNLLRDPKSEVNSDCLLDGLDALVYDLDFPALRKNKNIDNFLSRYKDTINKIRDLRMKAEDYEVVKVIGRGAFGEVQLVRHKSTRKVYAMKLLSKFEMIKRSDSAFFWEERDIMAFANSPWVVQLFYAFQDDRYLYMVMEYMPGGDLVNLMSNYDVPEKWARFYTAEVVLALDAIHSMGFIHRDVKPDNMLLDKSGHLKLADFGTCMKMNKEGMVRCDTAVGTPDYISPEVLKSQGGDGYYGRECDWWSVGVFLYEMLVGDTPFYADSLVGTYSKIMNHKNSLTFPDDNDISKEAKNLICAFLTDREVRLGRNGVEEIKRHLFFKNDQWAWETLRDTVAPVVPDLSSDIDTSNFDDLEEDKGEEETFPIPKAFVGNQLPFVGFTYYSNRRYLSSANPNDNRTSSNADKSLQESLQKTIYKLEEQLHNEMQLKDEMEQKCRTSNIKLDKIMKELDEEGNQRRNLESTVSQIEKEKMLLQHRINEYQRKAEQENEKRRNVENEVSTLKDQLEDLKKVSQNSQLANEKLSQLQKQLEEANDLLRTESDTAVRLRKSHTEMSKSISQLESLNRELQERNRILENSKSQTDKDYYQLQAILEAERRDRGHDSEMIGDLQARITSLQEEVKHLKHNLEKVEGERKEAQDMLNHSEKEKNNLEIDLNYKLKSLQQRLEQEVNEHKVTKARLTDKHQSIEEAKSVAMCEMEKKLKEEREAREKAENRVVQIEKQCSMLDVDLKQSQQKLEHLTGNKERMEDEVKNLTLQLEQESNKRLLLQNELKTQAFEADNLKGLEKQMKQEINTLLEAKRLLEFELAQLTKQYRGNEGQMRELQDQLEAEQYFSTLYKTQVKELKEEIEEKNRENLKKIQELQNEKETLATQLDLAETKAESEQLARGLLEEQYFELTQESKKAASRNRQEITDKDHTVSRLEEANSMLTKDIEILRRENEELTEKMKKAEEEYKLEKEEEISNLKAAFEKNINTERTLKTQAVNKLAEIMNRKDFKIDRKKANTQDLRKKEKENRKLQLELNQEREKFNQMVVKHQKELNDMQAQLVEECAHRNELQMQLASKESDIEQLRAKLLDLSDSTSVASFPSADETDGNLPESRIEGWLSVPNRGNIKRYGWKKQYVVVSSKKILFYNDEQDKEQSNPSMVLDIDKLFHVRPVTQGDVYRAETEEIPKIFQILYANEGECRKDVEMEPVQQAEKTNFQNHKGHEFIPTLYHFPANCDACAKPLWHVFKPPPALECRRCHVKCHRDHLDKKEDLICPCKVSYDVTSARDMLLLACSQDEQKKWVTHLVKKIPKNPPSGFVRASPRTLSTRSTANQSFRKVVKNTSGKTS

[7] = Stability in human plasma assessed as compound remaining after 60 mins by LC-MS/MS analysis in presence of 5 uM cholinesterase inhibitor tacrine; type: ADME, cell-free; details: with tacrine (cholinesterase inhibitor), read-out: Stability
[8] = Stability in human plasma assessed as compound remaining after 60 mins by LC-MS/MS analysis; type: ADME, cell-free; details: read-out: Stability
[9] = Apparent permeability across human Caco2 cells; type: ADME, cell-based; details: Caco-2
HDF-1 = assay: Induction of cell migration in human HDF-1 cells at 1 uM after 8 hrs by wound healing assay; type: functional, cell-based
[10] = Lipophilicity, log D of the compound at pH 7.4; type: physicochemical; details: buffer
[11] = Stability in human plasma assessed as compound remaining after 2 hrs by LC-MS/MS analysis; type: ADME, cell-free; details: read-out: Stability

| SMILES | EC50 [1] [nM] | half-life [2] [min] | IC50 [3] [nM] | IC50 [4] [nM] | other results |
| --- | --- | --- | --- | --- | --- |
| NCc1ccc(C(=O)Nc2ccncc2F)cc1-c1cccc(C(=O)Nc2ccc(CC(=O)O)cc2)c1 | 3600 | > 120 | 1.8 | – | – |
| COC(=O)c1cccc(NC(=O)c2cccc(-c3cc(C(=O)Nc4ccncc4F)ccc3CN)c2)c1F | 11 | < 5 | 1.2 | 8.8 | – |
| CCCOC(=O)c1cccc(C(=O)Nc2cccc(-c3cc(C(=O)Nc4ccncc4F)ccc3CN)c2)c1 | 15 | < 5 | 1.8 | – | – |
| COC(=O)c1cccc(NC(=O)c2cccc(-c3cc(C(=O)Nc4ccncc4F)ccc3CN)c2)c1 | 79 | < 5 | 1.1 | 125 | half-life [5]: 53 min; IC50 [6]: < 1 nM |
| NCc1ccc(C(=O)Nc2ccncc2F)cc1-c1cccc(C(=O)Nc2cccc(C(=O)O)c2F)c1 | > 10000 | > 120 | 3.5 | – | – |
| COC(=O)Cc1ccc(NC(=O)c2cccc(-c3cc(C(=O)Nc4ccncc4F)ccc3CN)c2)cc1 | 31 | < 5 | < 1 | 11 | half-life [5]: 53 min; IC50 [6]: < 1 nM |
| CCCOC(=O)c1ccc(NC(=O)c2cccc(-c3cc(C(=O)Nc4ccncc4F)ccc3CN)c2)cc1 | 8.3 | > 120 | < 1 | – | – |
| NCc1ccc(C(=O)Nc2ccncc2F)cc1-c1cccc(C(=O)Nc2ccc(CC(=O)OC3CCC3)cc2)c1 | 24 | 6 | 1.3 | 1.4 | – |
| NCc1ccc(C(=O)Nc2ccncc2F)cc1-c1cccc(NC(=O)c2cc(C(=O)O)ccc2F)c1 | 8900 | > 120 | < 1 | – | – |
| NCc1ccc(C(=O)Nc2ccncc2F)cc1-c1cccc(C(=O)Nc2cccc(CC(=O)O)c2)c1 | 1300 | > 120 | 1.5 | – | – |
| CC[C@@H](C)OC(=O)Cc1ccc(NC(=O)c2cccc(-c3cc(C(=O)Nc4ccncc4F)ccc3CN)c2)cc1 | 31 | > 120 | < 1 | < 1 | – |
| COC(=O)c1ccc(F)c(C(=O)Nc2cccc(-c3cc(C(=O)Nc4ccncc4F)ccc3CN)c2)c1 | 6.8 | 53 | < 1 | 1.4 | remaining at 1 h [7]: 103%; remaining at 1 h [8]: 23% |
| CC[C@H](C)OC(=O)c1ccc(F)c(NC(=O)c2cccc(-c3cc(C(=O)Nc4ccncc4F)ccc3CN)c2)c1 | 50 | 39 | 5.5 | 72 | – |
| CCC(C)OC(=O)c1cccc(NC(=O)c2cccc(-c3cc(C(=O)Nc4ccncc4F)ccc3CN)c2)c1 (stereo not given) | 77 | 16 | 2.6 | – | – |
| CC(C)OC(=O)Cc1ccc(NC(=O)c2cccc(-c3cc(C(=O)Nc4ccncc4F)ccc3CN)c2)cc1 | 37 | 94 | < 1 | < 1 | – |
| C[C@@H](N)[C@H]1CC[C@H](C(=O)Nc2ccncc2)CC1 [Y-27632] | 630 | > 120 | – | – | – |
| NCc1ccc(C(=O)Nc2ccncc2F)cc1-c1cccc(C(=O)Nc2ccc(C(=O)O)cc2)c1 | 6600 | > 120 | 3.3 | – | Papp [9]: 0.08 ×10⁻⁶ cm/s; Activity (HDF-1): inactive; logD [10]: 0.56 |
| CCCCOC(=O)c1cccc(NC(=O)c2cccc(-c3cc(C(=O)Nc4ccncc4F)ccc3CN)c2)c1 | 180 | < 5 | 27 | – | – |
| NCc1ccc(C(=O)Nc2ccncc2F)cc1-c1cccc(C(=O)Nc2cccc(C(=O)O)c2)c1 | 5900 | > 120 | 6.6 | – | – |

| SMILES | EC50 [1] [nM] | half-life [2] [min] | IC50 [3] [nM] | IC50 [4] [nM] | other results |
| --- | --- | --- | --- | --- | --- |
| CC[C@H](C)OC(=O)Cc1ccc(NC(=O)c2cccc(-c3cc(C(=O)Nc4ccncc4F)ccc3CN)c2)cc1 | 23 | 17 | < 1 | < 1 | remaining at 1 h [7]: 101%; remaining at 1 h [8]: 42% |
| CCCOC(=O)c1ccc(F)c(NC(=O)c2cccc(-c3cc(C(=O)Nc4ccncc4F)ccc3CN)c2)c1 | 75 | < 5 | 2.1 | – | – |
| NCc1ccc(C(=O)Nc2ccncc2F)cc1-c1cccc(NC(=O)c2ccc(C(=O)O)cc2)c1 | 3600 | – | 1 | – | – |
| NCc1ccc(C(=O)Nc2ccncc2F)cc1-c1cccc(C(=O)Nc2ccc(CC(=O)OC3CCCOC3)cc2)c1 (stereo not given) | 36 | 6 | < 1 | < 1 | – |
| COC(=O)c1cccc(C(=O)Nc2cccc(-c3cc(C(=O)Nc4ccncc4F)ccc3CN)c2)c1 | 17 | 64 | < 1 | 2.1 | – |
| COC(=O)Cc1cccc(NC(=O)c2cccc(-c3cc(C(=O)Nc4ccncc4F)ccc3CN)c2)c1 | 220 | < 5 | 1.1 | 144 | IC50 [6]: < 1 nM |
| NCc1ccc(C(=O)Nc2ccncc2F)cc1-c1cccc(NC(=O)c2cccc(C(=O)O)c2)c1 | 2000 | > 120 | < 1 | – | – |
| CN1CCC(OC(=O)Cc2ccc(NC(=O)c3cccc(-c4cc(C(=O)Nc5ccncc5F)ccc4CN)c3)cc2)CC1 | 330 | < 5 | < 1 | 4.6 | – |
| NCc1ccc(C(=O)Nc2ccncc2F)cc1-c1cccc(C(=O)Nc2ccc(CC(=O)OC3CCOCC3)cc2)c1 | 79 | 7 | < 1 | < 1 | remaining at 1 h [7]: 82%; remaining at 1 h [8]: 0% |
| NCc1ccc(C(=O)Nc2ccncc2F)cc1-c1cccc(C(=O)Nc2cccc(C(=O)OC3CCCC3)c2F)c1 | 43 | 9 | 1.4 | 41 | – |
| CC(C)OC(=O)c1cccc(NC(=O)c2cccc(-c3cc(C(=O)Nc4ccncc4F)ccc3CN)c2)c1 | 150 | 34 | 7 | – | – |
| C[C@H]1CNCCCN1S(=O)(=O)c1cccc2cncc(F)c12 | 210 | – | 3.8 | 197 | – |
| COC(=O)c1ccc(C(=O)Nc2cccc(-c3cc(C(=O)Nc4ccncc4F)ccc3CN)c2)cc1 | 5.2 | > 120 | < 1 | 3.1 | – |
| NCc1ccc(C(=O)Nc2ccncc2F)cc1-c1cccc(C(=O)Nc2cc(C(=O)O)ccc2F)c1 | 3900 | > 120 | 2 | – | – |
| NCc1ccc(C(=O)Nc2ccncc2F)cc1-c1cccc(C(=O)Nc2ccccc2)c1 | 22 | > 120 | < 1 | 31 | Papp [9]: 2.3 ×10⁻⁶ cm/s; remaining at 2 h [11]: > 90% |
| NCc1ccc(C(=O)Nc2ccncc2F)cc1-c1cccc(C(=O)OCC2CCCO2)c1 (stereo not given) | 94 | < 5 | – | 49 | – |
| COCCOC(=O)c1ccc(F)c(C(=O)Nc2cccc(-c3cc(C(=O)Nc4ccncc4F)ccc3CN)c2)c1 | 26 | < 5 | < 1 | 2.2 | remaining at 1 h [7]: 88%; remaining at 1 h [8]: 0% |
| CC[C@@H](C)OC(=O)c1ccc(F)c(NC(=O)c2cccc(-c3cc(C(=O)Nc4ccncc4F)ccc3CN)c2)c1 | 79 | 46 | 3.3 | – | – |
